Test results reported in PubChem BioAssay (NCI).
Values joined by “and” are separate entries in the source; they are usually repeats but may differ in a detail not shown here. Identical values can stand only once.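 Briefly, cells in 96-well plates were exposed to five compound concentrations for 48 h, and endpoints were estimated by linear interpolation. Abbreviation: GI50, concentration required for 50% inhibition of growth. TGI: concentration producing complete growth inhibition.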

How the values were obtained:
Assay in all cases: NCI-60 cell line screen, 48 h
[1] = tested on: SK-MEL-28 melanoma
[2] = tested on: MDA-MB-231 breast
[3] = tested on: UO-31 renal
[4] = tested on: DU-145 prostate
[5] = tested on: HOP-62 NSCLC
[6] = tested on: MDA-MB-435
[7] = tested on: HOP-92 NSCLC
[8] = tested on: SF-295 CNS
[9] = tested on: A498 renal
[10] = tested on: SK-MEL-5 melanoma

Compound | GI50 [1] [µM] | TGI [1] | GI50 [2] [µM] | TGI [2] [µM] | GI50 [3] [µM] | TGI [3] | GI50 [4] [µM] | TGI [4] [µM] | GI50 [5] [µM] | TGI [5] | GI50 [6] [µM] | TGI [6] [µM] | GI50 [7] [µM] | TGI [7] | GI50 [8] [µM] | TGI [8] | GI50 [9] [µM] | TGI [9] [µM] | TGI [10] | GI50 [10] [µM]
COc1ccc(-n2c(=S)sc3c(Cl)nc(C)nc32)c(OC)c1 | 2.18 | 4.6 µM | 3.16 | 10.3 | 3.62 | 15.4 µM | 1.84 | 3.25 | 2.57 | 7.68 µM | 2.14 | 3.93 | 2.06 | 8.46 µM | 7.06 | 20.1 µM | 11.5 | 23.8 | – | –
N#C/C(=C\c1ccc2[nH]ccc2c1)C(=O)NCCCCNC(=O)/C(C#N)=C/c1ccc2[nH]ccc2c1 | – | > 31.6 µM | – | > 10 | – | > 31.6 µM | – | > 10 | – | > 31.6 µM | – | > 10 | – | > 31.6 µM | – | > 31.6 µM | – | > 31.6 | > 31.6 µM | –
Oc1ccc(Cl)cc1C=Nc1cnc2ccccc2c1 | – | > 100 µM | – | > 85.7 | – | > 100 µM | – | > 100 | – | > 100 µM | – | > 100 | – | > 100 µM | – | > 100 µM | – | > 100 | > 90 µM | –
Cc1cccc(C2NC(=O)c3ccccc3N2)c1 (centres undefined) | – | > 100 µM | – | > 87.6 | – | > 100 µM | – | > 100 | – | 97.1 µM | – | 2.77 | – | > 100 µM | – | > 23.2 µM | – | > 73.4 | > 100 µM | –
COc1ccc(-n2cc(-c3ccc(OC)c(OC)c3)[nH]c2=O)cc1 | > 100 | > 100 µM | > 100 | > 100 | > 100 | > 100 µM | > 100 | > 100 | > 100 | > 100 µM | > 100 | > 100 | > 100 | > 100 µM | > 100 | > 100 µM | > 100 | > 100 | > 100 µM | > 100
CC(C)C[C@@H](N)[C@@H](O)C(=O)N[C@H](C(=O)N[C@H](C(=O)N[C@@H](CC(=O)O)C(=O)O)C(C)C)C(C)C | > 20 | > 20 µM | > 20 | > 20 | > 20 | > 20 µM | > 20 | > 20 | > 20 | > 20 µM | > 20 | > 20 | 10.3 | > 20 µM | > 20 | > 20 µM | > 20 | > 20 | > 20 µM | > 20
C[C@@H]1C[C@@H]([C@H](O)CC2CC(=O)NC(=O)C2)C(=O)[C@@H](C)C1 | 0.249 | 2.01 µM and 1.34 µM | 0.608 | 7.16 | 0.23 | 4.63 µM and 0.675 µM | 0.247 | – | 0.26 | 3.63 µM and 1.67 µM | 0.233 | 4.09 | 0.178 | 7.57 µM and 2.05 µM | 0.176 | 1.19 µM and 1.69 µM | 0.854 | – | 2.18 µM and 0.494 µM | 0.199
N=C1CCCC1C(=S)SCCC(N)=O (centres undefined) | – | > 100 µM | – | > 100 | – | > 100 µM | – | > 100 | – | > 100 µM | – | > 100 | – | > 100 µM | – | > 100 µM | – | > 100 | > 100 µM | –
[N-]=[N+]=CC(=O)CCC(N)C(=O)O (centres undefined) | 15.3 | 202 µM | – | > 250 | 8.31 | 219 µM | 5.58 | > 250 | – | 43.2 µM | 7.2 | > 250 | – | 69.3 µM | – | > 250 µM | 7.72 | > 250 | 105 µM | 1.48
Cc1n[nH]c2ccccc2c1=O | – | > 100 µM | – | > 100 | – | > 100 µM | – | > 100 | – | > 100 µM | – | > 100 | – | > 100 µM | – | > 100 µM | – | > 100 | > 100 µM | –
Nc1cc2c3c(cccc3c1)C(=O)N(CCN1CCCC1)C2=O | 4.28 | 18.2 µM | 4.95 | 40.7 | 2.35 | > 100 µM | 2.01 | 37.4 | 2.58 | 25.5 µM | 4.06 | 14.8 | 2.94 | > 54.4 µM | 2.59 | 11.2 µM | 2.54 | 7.89 | 4.01 µM | 1.65
NC(N)=N/N=C\c1ccc(OCc2ccccc2)cc1 | 1.76 | 3.68 µM | 1.96 | 5.12 | 2.7 | 17.5 µM | 2.71 | 8.45 | 2.42 | 10.5 µM | 1.68 | 4.1 | 1.05 | 4.24 µM | 2.25 | 7.02 µM | 2.31 | 9.7 | 3.24 µM | 1.62
CCC[CH2][Sn-]([CH2]CCC)([CH2]CCC)[O]C(=O)C(C)C | 0.182 | 0.329 µM | 0.103 | 0.227 | 0.158 | 0.312 µM | 0.124 | 0.252 | 0.157 | 0.297 µM | 0.153 | 0.289 | 0.037 | 0.162 µM | 0.199 | 0.365 µM | 0.153 | 0.286 | 0.291 µM | 0.157
COc1ccc2c(c1)C(=O)c1c-2c(OCCCN(C)C)nc2cc(Br)ccc12 | 1.87 | 3.74 µM | 3.18 | 13.5 | 1.36 | 2.88 µM | 5.91 | 18.9 | 1.81 | 4.29 µM | 5.45 | 18.1 | 6.12 | 20.4 µM | 7.3 | 20.7 µM | 7.31 | 20.5 | 28.3 µM | 15
COc1ccc(-c2ccc(OC)c(OC)c2OC)cc1 | 14.9 | > 100 µM | 3.21 | > 74.5 | 4.6 | > 100 µM | 2.83 | 19.3 | 2.87 | > 100 µM | 0.239 | 0.833 | 1.32 | 63 µM | 1.7 | > 100 µM | 2.27 | > 31.2 | > 45.2 µM | 2.68
C[C@@]1(F)[C@H](O)[C@@H](CO)O[C@H]1n1ccc(=O)[nH]c1=O | > 100 | > 100 µM | > 100 | > 100 | > 100 | > 100 µM | > 100 | > 100 | > 100 | > 100 µM | > 100 | > 100 | > 100 | > 100 µM | > 100 | > 100 µM | > 100 | > 100 | > 100 µM | > 100
O=C(Nc1n[nH]c2cc(-c3cc(F)ccc3F)ccc12)C1CC1 | > 14.5 | > 25 µM | 19.5 | > 25 | 16.1 | > 25 µM | 17.7 | > 25 | 15.2 | > 25 µM | 4.56 | 21.5 | > 25 | > 25 µM | 16.9 | > 25 µM | > 25 | > 25 | > 25 µM | 8.09
O=c1[nH]c(C2CCCN2)nc2c1oc1ccc(Cl)cc12 (centres undefined) | > 100 | > 100 µM | > 100 | > 100 | 26.9 | > 100 µM | > 100 | > 100 | 49.9 | > 100 µM | > 100 | > 100 | 12.4 | > 91.1 µM | > 72.3 | > 100 µM | 1.77 | 25 | > 85 µM | 20.3
COc1cc(C2CC(c3ccc(Nc4nc(NCCO)nc(NCCO)n4)cc3)=NN2c2cc(Cl)cc(Cl)c2)cc(OC)c1OC (centres undefined) | 1.53 | 3.14 µM | 1.45 | 3.44 | 2.08 | 8.09 µM | 1.84 | 4.11 | – | – | 1.55 | 3.24 | 1.46 | 6.73 µM | 1.16 | 2.87 µM | 16.6 | 30.2 | 3.34 µM | 1.7
COC1=CC(c2ccc[nH]2)=N/C1=C\c1[nH]c(C)c(C(=O)CCCCCCCCC(=O)O[C@H]2CC[C@H]3C4CCc5cc(O)ccc5C4CC[C@]23C)c1C (some centres undefined) | 0.841 | > 50 µM | 0.148 | 7.06 | 1.18 | 5.3 µM | 0.387 | > 50 | 0.483 | 10.2 µM | 0.272 | > 24.2 | 0.167 | 1.43 µM | 1.09 | > 43.8 µM | 1.28 | > 43.8 | 0.456 µM | 0.139
COc1ccc2[nH]c(C(=O)N3CCN(C(=O)OCc4ccc5c(Cl)cc(Cl)c(O)c5n4)CC3)cc2c1 | 1.58 | 2.94 µM | 1.34 | 2.87 | 1.01 | 2.17 µM | 1.19 | 2.53 | 1.56 | 3.36 µM | 1.2 | 2.72 | 0.864 | 2.4 µM | 3.91 | 13.8 µM | 1.59 | 2.99 | 3.03 µM | 1.66
Clc1ccccc1C(Nc1cnccn1)Nc1cnccn1 | – | > 100 µM | – | > 100 | – | > 100 µM | – | > 100 | – | > 100 µM | – | > 100 | – | > 100 µM | – | > 100 µM | – | > 100 | > 100 µM | –
CCCC(=O)O[C@]1(C)CC[C@@H]2[C@H]3[C@@H]1[C@@H]1C[C@@](C)(O)[C@H](OC)CC[C@](C)(OC(=O)[C@@H]2C)[C@H]3O1 | 19.9 | 35 µM | 28.9 | 77.6 | 40.4 | > 100 µM | 43.4 | > 100 | 82.7 | > 100 µM | 34.3 | > 100 | 17.6 | 31.4 µM | 30 | > 100 µM | 35.4 | > 100 | > 100 µM | 34.9
O=C1C(=O)c2c(nc3ccc(C(F)(F)F)cn23)-c2ccccc21 | 0.221 | 0.431 µM | 0.215 | 0.74 | 0.164 | 0.345 µM | 0.185 | 0.345 | 0.169 | 0.339 µM | 0.179 | 0.324 | 0.265 | 0.773 µM | 0.436 | 0.855 µM | 1.82 | 3.25 | 0.31 µM | 0.171
Cn1c(I)c(C#C[Si](C)(C)C)c(=O)n(C(=O)c2ccccc2)c1=O | 2.03 | 3.8 µM | 5.22 | 11.8 | 2.66 | 11.9 µM | 1.95 | 3.78 | 11.7 | 25.8 µM | 3.42 | 13.4 | 2.6 | 13.6 µM | 21.5 | 48.7 µM | 10.9 | 24.3 | 9.15 µM | 2.76
Cc1ccc(/C(=N/Nc2ccc([N+](=O)[O-])cc2)Sc2cc(Cl)c(C)cc2S(N)(=O)=O)cc1 | 3.03 | 8.9 µM | 0.8 | 2.24 | 2.56 | 10.7 µM | 1.75 | 4.1 | 2.35 | 5.34 µM | 1.73 | 3.89 | 1.45 | 3.77 µM | 1.75 | 3.39 µM | 1.87 | 4.55 | 5.56 µM | 1.78
COc1c2ccoc2nc2c(OC)c(OCC(O)C(C)(C)O)ccc12 (centres undefined) | – | > 100 µM | – | > 100 | – | > 100 µM | – | > 100 | – | – | – | > 100 | – | > 100 µM | – | > 100 µM | – | > 100 | > 100 µM | –
O=C(Nc1sc2c(c1C(=O)O)CCCC2)c1ccco1 | > 50 | > 50 µM | > 50 | > 50 | > 50 | > 50 µM | > 50 | > 50 | > 50 | > 50 µM | > 50 | > 50 | > 50 | > 50 µM | 26.3 | > 50 µM | > 50 | > 50 | > 50 µM | > 50
